Experiment [1] relates to ovarian cancer cells (PA-1). The experiment is described as follows: Cancer cell line growth inhibition (SRB assay). In kind it is cell-based. The following applies: read-out: Cancer Cell Line GI50 Range PA-1.
A further experiment addresses T1, human TTK (Homo sapiens, UniProt P33981).
T1 construct: amino terminal GST fusion of full length human TTK; purchased Invitrogen
T1 sequence (P33981 1-857): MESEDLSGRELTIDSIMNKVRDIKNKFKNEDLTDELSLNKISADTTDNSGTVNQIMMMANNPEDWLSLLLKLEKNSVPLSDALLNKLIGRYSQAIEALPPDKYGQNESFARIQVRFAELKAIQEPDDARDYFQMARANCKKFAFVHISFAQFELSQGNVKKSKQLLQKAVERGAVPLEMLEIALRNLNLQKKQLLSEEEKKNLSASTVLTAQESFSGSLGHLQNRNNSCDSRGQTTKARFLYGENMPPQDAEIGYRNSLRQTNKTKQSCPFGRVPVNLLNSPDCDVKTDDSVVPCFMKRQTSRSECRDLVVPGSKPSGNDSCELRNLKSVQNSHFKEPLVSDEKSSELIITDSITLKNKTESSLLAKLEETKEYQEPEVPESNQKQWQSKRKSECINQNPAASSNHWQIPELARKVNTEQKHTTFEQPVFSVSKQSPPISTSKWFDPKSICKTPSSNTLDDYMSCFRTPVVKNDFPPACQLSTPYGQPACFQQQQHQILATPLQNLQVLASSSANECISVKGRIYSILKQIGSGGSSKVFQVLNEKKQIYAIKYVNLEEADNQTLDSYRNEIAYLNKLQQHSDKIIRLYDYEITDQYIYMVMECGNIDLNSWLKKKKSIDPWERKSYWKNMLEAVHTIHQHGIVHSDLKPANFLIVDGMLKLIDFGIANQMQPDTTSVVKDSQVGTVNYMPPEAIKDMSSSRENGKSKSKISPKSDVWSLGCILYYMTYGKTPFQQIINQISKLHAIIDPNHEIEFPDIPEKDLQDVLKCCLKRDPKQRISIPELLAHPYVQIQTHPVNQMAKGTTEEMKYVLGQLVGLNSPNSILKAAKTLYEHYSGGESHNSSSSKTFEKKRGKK
The experiment is described as follows: TTK inhibition assay (indirect ELISA). To be noted: read-out: TTK IC50 Range. Format: biochemical. In general terms: ELISA stands for enzyme-linked immunosorbent assay.

Experiment [2] has as its system colon cancer cells (HCT116). Briefly: Cancer cell line growth inhibition (SRB assay). Format: cell-based. To be noted: read-out: Cancer Cell Line GI50 Range HCT116.
The mark [3] stands for this setting: PA-1 ovarian cancer cells, SRB assay.
Where [4] appears, read: Homo sapiens, HCT-116, HCT116 colon cancer cells, SRB assay.

We go through 9 compounds from patent US9580390B2, “Indazole compounds as kinase inhibitors and method of treating cancer with same” (University Health Network, priority 2011, dated 2017).

Read-outs that look alike come from different tables or passages of the source.

Consider `O=C(NCC1(N2CCOCC2)CCCCC1)c1ccc2[nH]nc(-c3ccc(OC4CCN(CCO)CC4)cc3)c2c1` [Example A432, 3-(4-((1-(2-hydroxyethyl)piperidin-4-yl)oxy)phenyl)-N-((1-morpholinocyclohexyl)methyl)-1H-indazole-5-carboxamide], for which the GI50 (in general, the concentration giving 50% growth inhibition) in experiment [1] (Homo sapiens, PA-1) was less than 100 nM; in experiment [2] (Homo sapiens, HCT-116), less than 100 nM. Further, the IC50 (as a rule, the point on the concentration scale where inhibition reaches its midpoint) at human TTK is less than 100 nM.
For the compound `O=C(N[C@@H](c1ccccn1)C1CC1)c1ccc2[nH]nc(-c3ccc(OC4CC5CCC(C4)N5C4COC4)cc3)c2c1` (stereo partly drawn) [Example A352, N-((R)-cyclopropyl(pyridin-2-yl)methyl)-3-(4-(((1R,3R,5S)-8-(oxetan-3-yl)-8-azabicyclo[3.2.1]octan-3-yl)oxy)phenyl)-1H-indazole-5-carboxamide], the GI50 was in the range of 100 to 500 nM in experiment [1] (Homo sapiens, PA-1) and 100 to 500 nM in experiment [2] (Homo sapiens, HCT-116). Also, the IC50 on human TTK is less than 100 nM.
As to `CC(C)(C)OC(=O)N1CCC(Oc2ccc(-c3n[nH]c4ccc(NC(=O)C(c5ccsc5)N5CCCC5)cc34)cc2)CC1` (stereo not drawn) [Example A115, tert-butyl 4-(4-(5-(2-(pyrrolidin-1-yl)-2-(thiophen-3-yl)acetamido)-1H-indazol-3-yl)phenoxy)piperidine-1-carboxylate], the 50% growth inhibitory concentration (GI50) in experiment [1] (setting [3]) and in experiment [2] (setting [4]) was more than 500 nM each time. For the same compound, the IC50 at human TTK was 100 to 500 nM.
With `Cc1ccccc1CC1(NC(=O)c2ccc3[nH]nc(-c4ccc(OC5CCN(C)CC5)cc4)c3c2)CC1` [Example A127, N-(1-(2-methylbenzyl)cyclopropyl)-3-(4-((1-methylpiperidin-4-yl)oxy)phenyl)-1H-indazole-5-carboxamide], the GI50 in experiment [1] (setting [3]) and in experiment [2] (setting [4]) was 100 to 500 nM in each case. Besides, the half-maximal inhibitory concentration (IC50) at human TTK was less than 100 nM.
In the case of `CC(C)C(NC(=O)c1ccc2[nH]nc(-c3ccc(OC4CC5CCC(C4)N5C)cc3)c2c1)c1ccccn1` (stereo not drawn) [Example A396, N-(2-methyl-1-(pyridin-2-yl)propyl)-3-(4-((8-methyl-8-azabicyclo [3.2.1]octan-3-yl)oxy)phenyl)-1H-indazole-5-carboxamide], the GI50 in experiment [1] (PA-1) and in experiment [2] (HCT116) was less than 100 nM each time. The 50% inhibitory concentration (IC50) at human TTK is less than 100 nM.
As to `CC(C)C(NC(=O)c1ccc2[nH]nc(-c3ccc(OC4CCN(C5COC5)CC4)cc3)c2c1)c1ccccn1` (stereo not drawn) [Example A327, N-(2-methyl-1-(pyridin-2-yl)propyl)-3-(4-((1-(oxetan-3-yl)piperidin-4-yl)oxy)phenyl)-1H-indazole-5-carboxamide], the GI50 in experiment [1] (Homo sapiens, PA-1) was less than 100 nM; in experiment [2] (Homo sapiens, HCT-116), less than 100 nM. In addition, the IC50 at human TTK is less than 100 nM.
As for `CN1CCC(Oc2ccc(-c3n[nH]c4ccc(C(=O)NCC5(c6ccccc6)CCCCC5)cc34)cc2)CC1` [Example A470, 3-(4-((1-methylpiperidin-4-yl)oxy)phenyl)-N-((1-phenylcyclohexyl)methyl)-1H-indazole-5-carboxamide], the GI50 in experiment [1] (setting [3]) and in experiment [2] (setting [4]) was 100 to 500 nM in each case. Moreover, at human TTK, the IC50 was less than 100 nM.
As to `O=C(Nc1ccc2[nH]nc(-c3ccc(NC4CCC(O)CC4)cc3)c2c1)C(c1ccsc1)N1CCCC1` (single isomer, unassigned) [Example A105, rel-N-(3-(4-(((1r,4r)-4-hydroxycyclohexyl)amino)phenyl)-1H-indazol-5-yl)-2-(pyrrolidin-1-yl)-2-(thiophen-3-yl)acetamide], the GI50 in experiment [1] (setting [3]) and in experiment [2] (setting [4]) was less than 100 nM in each case. Further, on human TTK, the half-inhibitory concentration (IC50) is less than 100 nM.
Regarding `O=C(N[C@H](c1ccccn1)C1CCCC1)c1ccc2[nH]nc(-c3ccc(OC4CCN(CCO)CC4)cc3)c2c1` [Example A233, (S)-N-(cyclopentyl(pyridin-2-yl)methyl)-3-(4-((1-(2-hydroxyethyl)piperidin-4-yl)oxy)phenyl)-1H-indazole-5-carboxamide], the GI50 in experiment [1] (Homo sapiens, PA-1) was less than 100 nM; in experiment [2] (Homo sapiens, HCT-116), less than 100 nM. Besides, the IC50 on human TTK is less than 100 nM.
